# Results from patent US20050208197A1, “Refreshment capable of stimulating movement of digestive tract” (priority 2002, published 2005).
# What was measured:
# stomach emptying in mice = assay: Stomach emptying in mice (phenol red test feed); type: in vivo; settings: oral, dose-dependent, P<0.05 vs distilled water, FIG. 15
# Procedure: Using a stomach tube, ddY line mice (10 animals in each group) were orally administered each of distilled water, the active substances α and β following an 18-hour fasting period. 60 minutes after administration, each animal was orally administered a test feed (0.2 mL/animal; 1.5% methylcellulose solution containing 0.05% phenol red) using the same technique. After 15 minutes, the animals were sacrificed by cervical dislocation and the stomachs were removed. The stomachs, along with their contents, were then homogenized in 10 mL 0.1N NaOH and the homogenates were allowed to stand for 1 hour at room temperature. To 1 mL of the resulting supernatant, 0.1 mL 20% trichloroacetic acid was added and the supernatant was centrifuged to precipitate proteins. Subsequently, 0.5 ml of the resulting supernatant was collected and 0.5 mL 0.5N NaOH was added to color the solution. The absorbance of the solution at 560 nm was measured to determine the amount of phenol red remaining in the stomach. The rate of stomach emptying was determined by the following equation: Stomach emptying rate (%)=(A−B)/A×100 where ‘A’ is the amount of phenol red in the stomach immediately after the administration of the test feed; and ‘B’ is the amount of phenol red remaining in the stomach 15 minutes after the administration of the test feed. 2. Results
# [1] = Water solubility of the isolated active substances; type: physicochemical
# From the text: In another aspect, the present invention provides a method for separating/purifying the active substances α and β. Specifically, the method includes freeze-drying beer, which serves as the starting material, to remove volatile components and collect non-volatile components; subjecting the non-volatile components to a chromatography using synthetic absorbent to remove unadsorbed components and collect adsorbed components in a crude fraction containing concentrated active substances; subjecting the crude fraction to a weakly acidic cation exchange chromatography to remove unadsorved components; eluting the active substances with acidic methanol (methanol/hydrochloric acid); subjecting the eluate to gel filtration chromatography using 0.01N hydrochloric acid to obtain a purified fraction; subjecting the purified fraction to C18 high performance liquid chromatography (ODS-HPLC) for further purification to isolate the two active substances. The active substances so obtained were water-soluble.
# [2] = biological target: T1, human muscarinic M3 receptors (Homo sapiens, UniProt P20309); assay: Test for binding activity to muscarinic M3 receptors ([3H]4-DAMP displacement)
# T1 construct: expressed in transfected cells; host or cells: CHO (Chinese hamster ovary) cells, membrane preparation
# Procedure: The mixture was then incubated at 22° C. for 60 min. Subsequently, the reaction mixture was filtered through a glass fiber filter (GF/B, PACKARD) while aspirated. Once the reaction came to an end, the mixture was washed several times with ice-chilled buffer. A scintillation cocktail (Microscint O, PACKARD) was then added to the filter, and the residual radioactivity was measured by a liquid scintillation counter (Topcount, PACKARD).
# T1 sequence (P20309 whole entry): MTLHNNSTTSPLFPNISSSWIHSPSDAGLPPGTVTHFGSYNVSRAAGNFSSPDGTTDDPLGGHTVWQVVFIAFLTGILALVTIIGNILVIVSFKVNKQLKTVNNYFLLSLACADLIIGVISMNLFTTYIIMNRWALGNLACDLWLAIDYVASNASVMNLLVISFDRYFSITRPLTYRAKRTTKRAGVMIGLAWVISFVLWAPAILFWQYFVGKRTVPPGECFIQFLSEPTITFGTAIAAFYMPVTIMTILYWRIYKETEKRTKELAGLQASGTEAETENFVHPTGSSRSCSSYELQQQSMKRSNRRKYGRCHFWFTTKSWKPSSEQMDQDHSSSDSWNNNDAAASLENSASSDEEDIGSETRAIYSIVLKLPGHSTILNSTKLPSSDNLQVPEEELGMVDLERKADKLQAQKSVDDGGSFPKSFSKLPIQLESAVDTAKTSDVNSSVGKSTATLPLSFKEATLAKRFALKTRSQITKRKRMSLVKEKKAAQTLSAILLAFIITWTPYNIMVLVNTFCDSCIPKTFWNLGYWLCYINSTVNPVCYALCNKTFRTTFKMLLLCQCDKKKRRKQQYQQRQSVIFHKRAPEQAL
solubility in water [1],IC50 [2] [nM],SMILES,stimulation of stomach emptying (stomach emptying in mice; 0.1 and 0.3 mg/kg),stimulation of stomach emptying (stomach emptying in mice; 0.3 and 1.0 mg/kg)
water-soluble,1180,N=C(N)NCCCCNC(=O)/C=C/c1ccc2c(c1)[C@H](C(=O)NCCCCNC(=N)N)[C@H](c1ccc(O)cc1)O2 [active substance α],significantly stimulated stomach emptying,–
water-soluble,4180,N=C(N)NCCCCNC(=O)/C=C/c1ccc2c(c1)[C@@H](C(=O)NCCCCNC(=N)N)[C@H](c1ccc(O)cc1)O2 [active substance β],–,significantly stimulated stomach emptying
